Test results as given in ChEMBL document CHEMBL5244262, “Discovery and optimization of benzenesulfonamides-based hepatitis B virus capsid modulators via contemporary medicinal chemistry strategies” (Eur J Med Chem, 2020).
pEC50, pIC50: −log10 of the molar value. Blank lines part the entries; values can stand above or below the molecule they belong to.

What was measured:
Hepatitis B virus [1] = test: Antiviral activity against HBV harboring wild type core protein; type: functional, organism-based
Hepatitis B virus [2] = test: Antiviral activity against HBV harboring core protein T33N mutant; type: functional, organism-based
Hepatitis B virus [3] = test: Antiviral activity against HBV harboring core protein T33Q mutant; type: functional, organism-based
Hepatitis B virus [4] = test: Antiviral activity against HBV harboring core protein T33S mutant; type: functional, organism-based
Hepatitis B virus [5] = test: Antiviral activity against HBV harboring core protein P25G mutant; type: functional, organism-based
Hepatitis B virus [6] = test: Antiviral activity against HBV harboring core protein P25A mutant; type: functional, organism-based
Hepatitis B virus [7] = test: Antiviral activity against HBV harboring core protein P25S mutant; type: functional, organism-based
Hepatitis B virus [8] = test: Antiviral activity against HBV harboring core protein V124I mutant; type: functional, organism-based
Hepatitis B virus [9] = test: Antiviral activity against HBV harboring core protein V124F mutant; type: functional, organism-based
Hepatitis B virus [10] = test: Ratio of EC50 for antiviral activity against HBV harboring core protein T33N mutant to EC50 for antiviral activity against HBV harboring wild type core protein; type: functional
Hepatitis B virus [11] = test: Ratio of EC50 for antiviral activity against HBV harboring core protein T33Q mutant to EC50 for antiviral activity against HBV harboring wild type core protein; type: functional
Hepatitis B virus [12] = test: Ratio of EC50 for antiviral activity against HBV harboring core protein T33S mutant to EC50 for antiviral activity against HBV harboring wild type core protein; type: functional
Hepatitis B virus [13] = test: Ratio of EC50 for antiviral activity against HBV harboring core protein P25G mutant to EC50 for antiviral activity against HBV harboring wild type core protein; type: functional
Hepatitis B virus [14] = test: Ratio of EC50 for antiviral activity against HBV harboring core protein P25A mutant to EC50 for antiviral activity against HBV harboring wild type core protein; type: functional
Hepatitis B virus [15] = test: Ratio of EC50 for antiviral activity against HBV harboring core protein P25S mutant to EC50 for antiviral activity against HBV harboring wild type core protein; type: functional
Hepatitis B virus [16] = test: Ratio of EC50 for antiviral activity against HBV harboring core protein V124I mutant to EC50 for antiviral activity against HBV harboring wild type core protein; type: functional
Hepatitis B virus [17] = test: Ratio of EC50 for antiviral activity against HBV harboring core protein V124F mutant to EC50 for antiviral activity against HBV harboring wild type core protein; type: functional
Hepatitis B virus [18] = test: Antiviral activity against Hepatitis B virus infected in HepG2.2.15 cells; type: functional, organism-based
Hepatitis B virus [19] = test: Antiviral activity against Hepatitis B virus harboring rtL180M/M204V transfected in HepG2 cells; type: functional, organism-based
Hepatitis B virus [20] = test: Antiviral activity against Hepatitis B virus harboring rtL180M/M204V/N236T transfected in HepG2 cells; type: functional, organism-based
Hepatitis B virus [21] = test: Antiviral activity against Hepatitis B virus harboring rtA181V transfected in HepG2 cells; type: functional, organism-based
Hepatitis B virus [22] = test: Antiviral activity against Hepatitis B virus harboring rtN236T transfected in HepG2 cells; type: functional, organism-based
Hepatitis B virus [23] = test: Antiviral activity against Hepatitis B virus harboring rtA181V/N236T transfected in HepG2 cells; type: functional, organism-based
[24] = Oral bioavailability in mouse; type: ADME, organism-based; details: in vivo
Hepatitis B virus [25] = test: Antiviral activity against Hepatitis B virus infected in HePAD38 cells; type: functional, organism-based
[26] = Cytotoxicity against human HePAD38 cells; type: toxicity, cell-based
[27] = Selectivity index, ratio of CC50 for human HePAD38 cells to EC50 for antiviral activity against Hepatitis B virus infected in HePAD38 cells; type: toxicity, cell-based; details: read-out: Ratio CC50/EC50
Hepatitis B virus [28] = test: Antiviral activity against Hepatitis B virus infected in AML12HBV10 cells; type: functional, organism-based
[29] = Cytotoxicity against mouse AML12HBV10; type: toxicity, cell-based; details: AML12HBV10 cells
[30] = Cytotoxicity in human primary hepatocytes; type: toxicity, cell-based, Hepatocyte
[31] = Cytotoxicity against human HepG2.2.15 cells; type: toxicity, cell-based, HepG2 2.2.15
Hepatitis B virus [32] = test: Antiviral activity against Hepatitis B virus infected in HepDE19 cells; type: functional, organism-based
[33] = Cytotoxicity against human HepDE19 cells; type: functional
Hepatitis B virus [34] = test: Antiviral activity against Hepatitis B virus infected in primary hepatocytes; type: functional, organism-based; details: Hepatocyte
Hepatitis B virus [35] = test: Antiviral activity against Hepatitis B virus infected in HepBHAe82 cells; type: functional, organism-based
[36] = Cytotoxicity against human HepBHAe82 cells; type: toxicity, cell-based
Hepatitis B virus [37] = test: Antiviral activity against Hepatitis B virus infected in HepDES19 cells; type: functional, organism-based
[38] = Cytotoxicity against human HepDES19 cells; type: toxicity, cell-based
Hepatitis B virus [39] = test: Antiviral activity against Hepatitis B virus infected in HePAD38 cells assessed as reduction in HBeAg production; type: functional, organism-based
[40] = Half life in human plasma; type: ADME, cell-free
[41] = Half life in mouse plasma; type: ADME, cell-free
[42] = Half life in dog plasma; type: ADME, cell-free, Canis lupus familiaris
[43] = Oral bioavailability in CD1 mouse; type: ADME, organism-based; details: in vivo
Hepatitis B virus [44] = test: Antiviral activity against Hepatitis B virus assessed as inhibition of nucleocapsid assembly; type: functional, organism-based

SMILES: COC(=O)C1=C(CN2CC(F)(F)C[C@H]2C(=O)O)NC(c2nccs2)=N[C@H]1c1ccc(F)cc1Cl
pEC50 (Hepatitis B virus [1]): 7.04
pEC50 (Hepatitis B virus [2]): 5.46
pEC50 (Hepatitis B virus [3]): 5.71
pEC50 (Hepatitis B virus [4]): 6.79
pEC50 (Hepatitis B virus [5]): 5.86
pEC50 (Hepatitis B virus [6]): 6.13
pEC50 (Hepatitis B virus [7]): 6.04
pEC50 (Hepatitis B virus [8]): 8.05
pEC50 (Hepatitis B virus [9]): 5.96
Ratio (Hepatitis B virus [10]): 38.1
Ratio (Hepatitis B virus [11]): 21.7
Ratio (Hepatitis B virus [12]): 1.8
Ratio (Hepatitis B virus [13]): 15.2
Ratio (Hepatitis B virus [14]): 8.1
Ratio (Hepatitis B virus [15]): 9.9
Ratio (Hepatitis B virus [16]): 0.1
Ratio (Hepatitis B virus [17]): 11.9

SMILES: O=C(Nc1cc(F)c(F)c(F)c1)c1ccc(F)c(S(=O)(=O)N2CCC(O)CC2)c1
pEC50 (Hepatitis B virus [18]): 6.40
pEC50 (Hepatitis B virus [19]): 6.09
pEC50 (Hepatitis B virus [20]): 6.09
pEC50 (Hepatitis B virus [21]): 6.09
pEC50 (Hepatitis B virus [22]): 6.09
pEC50 (Hepatitis B virus [23]): 6.09
bioavailability [24]: ≥ 84.6%
pEC50 (Hepatitis B virus [25]): 6.48
CC50 [26]: 5.14 µM
selectivity ratio [27]: 15.6
pEC50 (Hepatitis B virus [1]): 6.41
pEC50 (Hepatitis B virus [2]): < 5.30
pEC50 (Hepatitis B virus [3]): < 5.30
pEC50 (Hepatitis B virus [4]): 6.06
pEC50 (Hepatitis B virus [5]): 5.32
pEC50 (Hepatitis B virus [6]): 6.05
pEC50 (Hepatitis B virus [7]): 6.03
pEC50 (Hepatitis B virus [8]): 7.38
pEC50 (Hepatitis B virus [9]): 6.54
Ratio (Hepatitis B virus [10]): >13
Ratio (Hepatitis B virus [11]): >13
Ratio (Hepatitis B virus [12]): 2.3
Ratio (Hepatitis B virus [13]): 12.2
Ratio (Hepatitis B virus [14]): 2.3
Ratio (Hepatitis B virus [15]): 2.4
Ratio (Hepatitis B virus [16]): 0.1
Ratio (Hepatitis B virus [17]): 0.7

SMILES: O=C1CC2CN(S(=O)(=O)c3cc(C(=O)Nc4cc(F)c(F)c(F)c4)ccc3F)CC2C1 (stereo unspecified)
pEC50 (Hepatitis B virus [25]): 6.41
CC50 [26]: 18.7 µM
selectivity ratio [27]: 48

SMILES: CC(NS(=O)(=O)c1c2ncccc2c(C(=O)Nc2ccc(F)c(F)c2)n1C)C(F)(F)F (stereo unspecified)
pEC50 (Hepatitis B virus [18]): 10.00
pIC50 (Hepatitis B virus [44]): > 6.00
CC50 [31]: > 30 µM

SMILES: O=C(Nc1cc(F)c(F)c(F)c1)c1ccc(F)c(S(=O)(=O)N2C[C@H]3CC[C@@H]2CC3=O)c1
pEC50 (Hepatitis B virus [25]): 6.66
CC50 [26]: 7.41 µM
selectivity ratio [27]: 33.7

SMILES: Cn1cc2c(c1C(=O)Nc1cc(F)c(F)c(F)c1)OCC1CN(C(=O)c3ncco3)CC1NS2(=O)=O (stereo unspecified)
pEC50 (Hepatitis B virus [25]): > 6.00

SMILES: O=C(Nc1cc(F)c(F)c(F)c1)c1ccc(F)c(S(=O)(=O)N2CC3CC(O)CC3C2)c1 (stereo unspecified)
pEC50 (Hepatitis B virus [25]): 6.48
CC50 [26]: 22.2 µM
selectivity ratio [27]: 74.1

SMILES: COC(=O)C1=C(C)NC(c2ncc(F)cc2F)=N[C@H]1c1ccc(F)cc1Cl
pEC50 (Hepatitis B virus [1]): 6.83
pEC50 (Hepatitis B virus [2]): < 5.00
pEC50 (Hepatitis B virus [3]): 5.43
pEC50 (Hepatitis B virus [4]): 6.35
pEC50 (Hepatitis B virus [5]): < 5.00
pEC50 (Hepatitis B virus [6]): 5.46
pEC50 (Hepatitis B virus [7]): 5.37
pEC50 (Hepatitis B virus [8]): 7.89
pEC50 (Hepatitis B virus [9]): 5.63
Ratio (Hepatitis B virus [10]): >67
Ratio (Hepatitis B virus [11]): 25
Ratio (Hepatitis B virus [12]): 3
Ratio (Hepatitis B virus [13]): >67
Ratio (Hepatitis B virus [14]): 23.2
Ratio (Hepatitis B virus [15]): 28.7
Ratio (Hepatitis B virus [16]): 0.09
Ratio (Hepatitis B virus [17]): 15.7

Second part, led by results:

pEC50 (Hepatitis B virus [28]): 7.10
EC90 (Hepatitis B virus [28]): 0.33 µM
pEC50 (Hepatitis B virus [18]): 7.10
EC90 (Hepatitis B virus [18]): 0.33 µM
pEC50 (Hepatitis B virus [32]): 7.10
EC90 (Hepatitis B virus [32]): 0.33 µM
pEC50 (Hepatitis B virus [35]): 7.10
EC90 (Hepatitis B virus [35]): 0.33 µM
SMILES: CC[C@@H](C)NS(=O)(=O)c1ccc(F)c(C(=O)Nc2ccc(F)c(F)c2)c1
CC50 [29]: > 10 µM
CC50 [30]: > 10 µM
CC50 [31]: > 10 µM
CC50 [33]: > 10 µM
pEC50 (Hepatitis B virus [34]): 7.10
EC90 (Hepatitis B virus [34]): 0.33 µM
CC50 [36]: > 10 µM

pIC50 (Hepatitis B virus [28]): 6.52
pIC50 (Hepatitis B virus [37]): 7.00
SMILES: CCC(C)NS(=O)(=O)c1ccc(F)c(C(=O)Nc2ccc(F)c(F)c2)c1 (stereo unspecified)
CC50 [29]: > 50 µM
CC50 [38]: > 50 µM

pIC50 (Hepatitis B virus [39]): 8.52
half-life [40]: > 24 h
half-life [41]: > 24 h
half-life [42]: > 24 h
bioavailability [43]: > 100%
SMILES: C#CCNC(=O)C(=O)c1c(C)c(C(=O)Nc2ccc(F)c(F)c2)n(C)c1C
CC50 [30]: > 10 µM

pEC50 (Hepatitis B virus [25]): 6.52
SMILES: O=C1CCN(S(=O)(=O)c2cc(C(=O)Nc3cc(F)c(F)c(F)c3)ccc2F)CC1
CC50 [26]: 7.41 µM
selectivity ratio [27]: 24.7

pEC50 (Hepatitis B virus [25]): 6.46
SMILES: O=C(Nc1cc(F)c(F)c(F)c1)c1ccc(F)c(S(=O)(=O)N2C[C@H]3CC[C@@H]2CC3O)c1 (stereo partly specified)
CC50 [26]: 10.7 µM
selectivity ratio [27]: 30.5

pEC50 (Hepatitis B virus [25]): 6.60
SMILES: O=C(Nc1cc(F)c(F)c(F)c1)c1ccc(F)c(S(=O)(=O)NC2CCC(O)CC2)c1 (stereo unspecified)
CC50 [26]: 10.7 µM
selectivity ratio [27]: 42.7

pEC50 (Hepatitis B virus [25]): 6.68
SMILES: O=C(Nc1cc(F)c(F)c(F)c1)c1ccc(F)c(S(=O)(=O)N2CCC(=NO)CC2)c1
CC50 [26]: 7.41 µM
selectivity ratio [27]: 35.3
